Among the test systems are SK-MEL-28 melanoma; OVCAR-5 ovarian; HT29 colon; SNB-75 CNS; UACC-62 melanoma; HCT-15 colon; SN12C renal; SK-MEL-2 melanoma; NCI-H226 lung; U251 CNS; LOX IMVI melanoma; HL-60(TB) leukemia; HCC-2998 colon; 786-0 renal; CCRF-CEM leukemia; SW-620 colon; OVCAR-3 ovarian; MDA-MB-435; NCI-H522 lung; SR leukemia.
Holding throughout (assay): inhibition of tumour cell growth, NCI panel, 48 h

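Assay format: 96-well plates, 48-hour exposure. TGI: concentration producing complete growth inhibition.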 A value given as a limit tells only on which side of the number the result lay.

As to `CC1C=C[C@H](Sc2ccccc2)CC[C@@]1(C)O` (stereo partly specified), the TGI with SK-MEL-28 melanoma, with OVCAR-5 ovarian, in the experiment on HT29 colon, in the experiment with SNB-75 CNS, with UACC-62 melanoma and in the experiment on HCT-15 colon was greater than 100 µM each time. Also, the TGI in the experiment with SN12C renal, with SK-MEL-2 melanoma, with NCI-H226 lung, in the experiment with U251 CNS, in the experiment with LOX IMVI melanoma and in the experiment on HL-60(TB) leukemia was greater than 100 µM each time. In addition, the TGI with HCC-2998 colon, in the experiment on 786-0 renal, in the experiment with CCRF-CEM leukemia and in the experiment with SW-620 colon was greater than 100 µM throughout.
Regarding `CCOC(=O)/C(C[C@H]1OC(C)(C)O[C@@H]1[C@H]1COC(C)(C)O1)=N/O`, the TGI in the experiment on SK-MEL-28 melanoma, in the experiment with OVCAR-5 ovarian, in the experiment with HT29 colon, in the experiment on UACC-62 melanoma, with HCT-15 colon and in the experiment with SN12C renal was greater than 100 µM each time. Also, the TGI in the experiment on SK-MEL-2 melanoma, in the experiment on NCI-H226 lung, with OVCAR-3 ovarian, in the experiment with MDA-MB-435, in the experiment on U251 CNS and in the experiment with LOX IMVI melanoma was greater than 100 µM throughout. In addition, the TGI in the experiment with NCI-H522 lung, with HL-60(TB) leukemia, in the experiment with HCC-2998 colon, in the experiment on 786-0 renal, in the experiment with CCRF-CEM leukemia and in the experiment with SW-620 colon was greater than 100 µM throughout.
Regarding `Cc1n[nH]c(=O)n1/N=C/c1ccncc1`, the TGI in the experiment on SK-MEL-28 melanoma, with OVCAR-5 ovarian, in the experiment on HT29 colon, in the experiment on SNB-75 CNS, in the experiment with UACC-62 melanoma and in the experiment on HCT-15 colon was greater than 100 µM each time. The TGI in the experiment with SN12C renal, in the experiment on SK-MEL-2 melanoma, in the experiment with NCI-H226 lung, with OVCAR-3 ovarian, in the experiment on MDA-MB-435 and with U251 CNS was greater than 100 µM throughout. Also, the TGI in the experiment with LOX IMVI melanoma, in the experiment on NCI-H522 lung, in the experiment on HCC-2998 colon, in the experiment on 786-0 renal, in the experiment with CCRF-CEM leukemia and in the experiment with SW-620 colon was greater than 100 µM throughout.
For the compound `Brc1ccc2c(c1)C1C(CO2)C(c2ccccc2)=NN1c1ccccc1` (stereo unspecified), the TGI in the experiment on SK-MEL-28 melanoma, with OVCAR-5 ovarian, in the experiment with HT29 colon, with SNB-75 CNS, with SK-MEL-2 melanoma and with OVCAR-3 ovarian was greater than 100 µM in each case. Also, the TGI in the experiment with U251 CNS, in the experiment with LOX IMVI melanoma, in the experiment with HL-60(TB) leukemia, with HCC-2998 colon, in the experiment with 786-0 renal and in the experiment with CCRF-CEM leukemia was greater than 100 µM each time. The compound further yielded a TGI in the experiment with SW-620 colon greater than 100 µM.
Consider `CSc1nc2c(c(O)c(C)c(=O)n2C2OCC(OC(C)=O)C(OC(C)=O)C2OC(C)=O)c(=O)n1C` (stereo unspecified), for which the TGI with SK-MEL-28 melanoma, in the experiment on OVCAR-5 ovarian, with HT29 colon, with SNB-75 CNS, with UACC-62 melanoma and in the experiment with HCT-15 colon was greater than 100 µM in each case. The TGI in the experiment on SN12C renal, in the experiment with SK-MEL-2 melanoma, with NCI-H226 lung, in the experiment on OVCAR-3 ovarian, in the experiment with U251 CNS and in the experiment on LOX IMVI melanoma was greater than 100 µM each time. Further, the TGI with NCI-H522 lung, in the experiment on SR leukemia, in the experiment with HL-60(TB) leukemia, in the experiment on 786-0 renal, with CCRF-CEM leukemia and in the experiment with SW-620 colon was greater than 100 µM in each case.
With `Cc1cc(N(CCC#N)CCC#N)ccc1N=Nc1cccc(Cl)c1`, the TGI with SK-MEL-28 melanoma, in the experiment with OVCAR-5 ovarian, in the experiment on HT29 colon, in the experiment on UACC-62 melanoma, in the experiment with SN12C renal and in the experiment on SK-MEL-2 melanoma was greater than 100 µM in each case. Besides, the TGI in the experiment on NCI-H226 lung, with OVCAR-3 ovarian, with U251 CNS, with NCI-H522 lung, with HL-60(TB) leukemia and in the experiment with 786-0 renal was greater than 100 µM each time. Also, the TGI in the experiment with CCRF-CEM leukemia and in the experiment with SW-620 colon was greater than 100 µM each time.
As to `COc1ccc(N2C(=O)[C@@H]3[C@H](C2=O)c2[nH]c4ccccc4c2C2CCC(C(C)(C)C)C[C@@H]23)cc1` (stereo partly specified), the TGI was greater than 100 µM in the experiment with SK-MEL-28 melanoma; greater than 100 µM in the experiment on OVCAR-5 ovarian; greater than 100 µM with HT29 colon; 38 µM with SNB-75 CNS; 49.4 µM in the experiment on UACC-62 melanoma; greater than 100 µM in the experiment with HCT-15 colon. Moreover, the TGI was 37.5 µM in the experiment on SN12C renal; greater than 89.9 µM in the experiment on SK-MEL-2 melanoma; 46.4 µM with NCI-H226 lung; greater than 75.7 µM in the experiment with OVCAR-3 ovarian; 49.1 µM in the experiment on U251 CNS; greater than 58.6 µM with LOX IMVI melanoma. The TGI in the experiment with NCI-H522 lung was 62.7 µM; with HL-60(TB) leukemia it was greater than 100 µM; in the experiment on HCC-2998 colon, greater than 100 µM; with 786-0 renal it was 31.1 µM; in the experiment on CCRF-CEM leukemia it was 43.7 µM; in the experiment on SW-620 colon, greater than 100 µM.
On to `COC(=O)C1N=CSCC1(C)O` (stereo unspecified), for which the TGI in the experiment on SK-MEL-28 melanoma, in the experiment with OVCAR-5 ovarian, with HT29 colon, with SNB-75 CNS, in the experiment with UACC-62 melanoma and in the experiment on HCT-15 colon was greater than 100 µM throughout. Further, the TGI in the experiment with SN12C renal, in the experiment with SK-MEL-2 melanoma, in the experiment on NCI-H226 lung, with OVCAR-3 ovarian, with LOX IMVI melanoma and in the experiment on HL-60(TB) leukemia was greater than 100 µM throughout. For the same compound, the TGI in the experiment on HCC-2998 colon, in the experiment on 786-0 renal, in the experiment with CCRF-CEM leukemia and in the experiment on SW-620 colon was greater than 100 µM each time.

The record behind these values is PubChem BioAssay (NCI).
